Results as given in paper PMC6628017, “Advanced Glycation End-Products Can Activate or Block Bitter Taste Receptors” (Nutrients, 2019).
Entries after “also recorded” stand apart in the source; their conditions may differ. Structures can show the parent of a compound that is named as a salt. Where two headings read alike, the source gives them in different places.

Assays:
[1] = Solubility in calcium assay buffer; type: physicochemical; details: 1X HBSS, 20 mM HEPES
From the text: The cell-culture medium was composed of Dulbecco’s modified Eagle’s medium-F12 (Gibco, Life technologies, Carlsbad, CA, USA) supplemented with 10% heat-inactivated fetal bovine serum (Sigma, Burlington, MA, USA) and 1% penicillin-streptomycin (Gibco, Life technologies). We used hygromycin (Sigma Aldrich, Oakville, ON, Canada) in the selection medium to generate stable cells. All bitter compounds (quinine hydrochloride, diphenhydramine or DPH, and cromolyn) were purchased from Sigma Aldrich (Oakville, ON, Canada). We purchased glyoxal-derived lysine dimer (GOLD) and Nε-Carboxymethyl-L-lysine (CML) from PolyPeptide Laboratories (Strasbourg, France). All the compounds were freshly prepared using calcium assay buffer (1X HBSS, 20 mM HEPES) on the day of the experiment. Calcium sensitive dye Fluo-4 NW kit was purchased from Life technologies (Carlsbad, CA USA).

[2] = molecular target: T1, T2R4 (Homo sapiens, UniProt Q9NYW5); details: cited from earlier work
T1 sequence (Q9NYW5 1-299): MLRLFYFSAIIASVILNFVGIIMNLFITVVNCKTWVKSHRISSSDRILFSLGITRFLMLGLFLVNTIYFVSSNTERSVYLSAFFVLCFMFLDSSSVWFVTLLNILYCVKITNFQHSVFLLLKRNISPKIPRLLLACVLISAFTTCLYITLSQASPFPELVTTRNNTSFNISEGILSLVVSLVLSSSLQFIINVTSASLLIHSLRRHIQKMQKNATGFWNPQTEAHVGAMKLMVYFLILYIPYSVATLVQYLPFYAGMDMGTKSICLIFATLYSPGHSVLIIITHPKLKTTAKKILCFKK

[3] = molecular target: T1, T2R4; assay: Calcium mobilization assay, HEK293T cells stably expressing T2R4; type: cell-based; details: for Calcium mobilization by compound alone, T2R4 cells: 100 μM, compared to basal; for IC50: 3–200 μM AGE with quinine 1 mM, ± standard deviation, read-out: IC50, inhibition of quinine-activated T2R4 calcium mobilization
From the text: (§1) Human Embryonic Kidney (HEK293T) cell line was purchased from ATCC (Manassas, VA, USA). N-terminal FLAG epitope tagged human TAS2R4, TAS2R14, and TAS2R20 genes were codon-optimized for expression in mammalian cells and cloned into the KpnI-NotI site of pcDNA 3.1/Hygro (+) expression vector, and they were commercially synthesized (GenScript Inc., Piscataway, MA, USA) as previously described in Reference. We generated stable HEK293T cells expressing the above T2Rs in the selection medium containing 200 μg/mL hygromycin as described previously in References.
(§2) Calcium mobilization assays on each T2R expressing stable cells were performed by incubation with Fluo-4 NW dye containing probenecid (2.5 mM) for 35 min at 37 °C, followed by 35 min at room temperature. We then treated the cells either with the putative agonist alone or in combination with the AGE compound. To elucidate the action of AGEs on T2Rs, the cells were initially treated with a fixed concentration (100 μM). To determine IC50 for AGE compounds, the agonist concentration was kept constant whilst the AGE compound was added in a concentration dependent manner (3 μM to 200 μM). To determine EC50 for the agonists, we used a concentration range from 3 μM to 200 μM. The Flexstation-3 automated fluorescence microplate reader (Molecular devices) was used to measure the calcium at 525 nm emission, followed by excitation at 494 nm. ΔRFU (relative fluorescence units) were calculated by the system based on the difference between the maximum response and minimum response. We used HEK293T cells as the control for baseline subtraction. The data were collected from at least three independent experiments performed in triplicates and analyzed using GraphPad Prism V. 6.0 (GraphPadSoftware, La Jolla, CA, USA).

[4] = molecular target: T2, T2R14 (Homo sapiens, UniProt Q9NYV8); assay: Calcium mobilization assay, HEK293T cells stably expressing T2R14; type: cell-based; details: for Calcium response by compound alone, T2R14 cells: 100 μM; for Inhibition of DPH-activated T2R14 calcium mobilization: 3–200 μM AGE with DPH 500 μM
T2 sequence (Q9NYV8 1-317): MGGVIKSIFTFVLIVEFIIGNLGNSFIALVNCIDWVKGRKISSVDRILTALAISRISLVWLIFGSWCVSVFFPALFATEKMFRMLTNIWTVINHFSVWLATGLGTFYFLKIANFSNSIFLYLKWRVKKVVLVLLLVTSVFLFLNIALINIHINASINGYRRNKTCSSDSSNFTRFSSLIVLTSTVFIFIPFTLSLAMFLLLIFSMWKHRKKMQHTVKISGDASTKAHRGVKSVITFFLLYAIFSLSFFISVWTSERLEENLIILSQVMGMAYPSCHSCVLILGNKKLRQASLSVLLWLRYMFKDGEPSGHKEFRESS
From the text: as §1, §2

[5] = molecular target: T3, T2R20 (Homo sapiens, UniProt P59543); assay: Calcium mobilization assay, HEK293T cells stably expressing T2R20; type: cell-based; details: for Activation of T2R20 by compound alone: 100 μM; for EC50: 3–200 μM, ± standard deviation, read-out: EC50, activation of T2R20 calcium mobilization
T3 sequence (P59543 1-309): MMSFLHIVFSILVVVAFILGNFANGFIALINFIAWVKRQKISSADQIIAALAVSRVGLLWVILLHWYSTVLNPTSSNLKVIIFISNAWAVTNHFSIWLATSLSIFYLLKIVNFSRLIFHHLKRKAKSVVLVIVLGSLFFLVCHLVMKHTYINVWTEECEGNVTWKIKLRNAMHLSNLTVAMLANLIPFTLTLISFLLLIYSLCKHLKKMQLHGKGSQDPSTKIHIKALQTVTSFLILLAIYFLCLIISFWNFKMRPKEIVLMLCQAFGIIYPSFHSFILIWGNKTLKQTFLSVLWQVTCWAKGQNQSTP
From the text: as §1, §2

Pentosidine
Solubility in calcium assay buffer [1]: insoluble or only slightly soluble

NCCCC[C@@H](C(=O)O)N(CC(=O)O)CC(=O)O [BCML, Nα, Nα-bis(carboxymethyl)-L-lysine]
IC50 ([2]; read-out: IC50 against quinine, T2R4 antagonist): 0.06 µM

C=C[C@H]1C[N@@]2CC[C@H]1C[C@H]2[C@H](O)c1ccnc2ccc(OC)cc12 [quinine, quinine hydrochloride]
EC50 ([2]; agonist): 1000 µM

CC(NCCCC[C@H](N)C(=O)O)C(=O)O (some centres unmarked) [Nε-Carboxyethyl Lysine (CEL), Nε-Carboxyethyl Lysine]
Solubility in calcium assay buffer [1]: insoluble or only slightly soluble

N[C@@H](CCCCNCC(=O)O)C(=O)O [CML, Nε-Carboxymethyl-L-lysine]
Calcium mobilization by compound alone, T2R4 cells [3]: did not cause a significant increase in calcium mobilization | IC50 [3]: 32.6 ± 9.5 µM | Calcium response by compound alone, T2R14 cells [4]: did not show any calcium response | Inhibition of DPH-activated T2R14 calcium mobilization [4]: no significant effect in suppressing the DPH activation of T2R14 | Activation of T2R20 by compound alone [5]: activated T2R20 | EC50 [5]: 65.3 ± 17.8 µM

O=C(O)c1cc(=O)c2c(OCC(O)COc3cccc4oc(C(=O)O)cc(=O)c34)cccc2o1 [cromolyn, reference compound]
EC50 [5]: 50.7 ± 15.1 µM

NC(CCCCn1cc[n+](CCCCC(N)C(=O)O)c1)C(=O)O (centres unmarked) [GOLD, glyoxal-derived lysine dimer]
Calcium mobilization by compound alone, T2R4 cells [3]: did not cause a significant increase in calcium mobilization | IC50 [3]: 10.5 ± 4.7 µM | Calcium response by compound alone, T2R14 cells [4]: did not show any calcium response | Inhibition of DPH-activated T2R14 calcium mobilization [4]: did not generate a reverse sigmoid curve to determine the IC50 value; also recorded: no dose-dependent inhibition observed | Activation of T2R20 by compound alone [5]: activated T2R20 | EC50 [5]: 79.3 ± 29.2 µM
